Data published in patent US4634700A, “1,3-dioxolanyl derivatives, a process for their preparation, their use and pharmaceutical preparations containing these compounds” (Ludwig Heumann & Co., GmbH, priority 1984, dated 1987).
Values after ≈ are worked out from the molar mass of the structure shown.

What was measured:
Test in all cases: Growth inhibition of yeast, IC 50% determination
Type in all cases: cell-based
Hansenula anomala = Hansenula anomala (pathogen -)
Description: (§1) One method of determining the microbiological activity of the compounds according to the invention on yeasts is the determination of the inhibitory concentration 50% (IC 50%).

Cand. krusei = settings: Pichia kudriavzevii; Cand. krusei (pathogen +)
Description: as §1

Cand. albicans = settings: Candida albicans; Cand. albicans (pathogen +)
Description: as §1

Sacch. cerevisiae 2 = settings: Saccharomyces cerevisiae; Sacch. cerevisiae 2 (pathogen (+))
Description: as §1

Sacch. uvarum = Sacch. uvarum (pathogen (+))
Description: as §1

Cand. pseudotropicalis = settings: Kluyveromyces marxianus; Cand. pseudotropicalis (pathogen +)
Description: as §1

Geotrichum capitum = Geotrichum capitum (pathogen +)
Description: as §1

Sacch. cerevisiae 1 = settings: Saccharomyces cerevisiae; Sacch. cerevisiae 1 (pathogen (+))
Description: as §1

Cand. curvata = Cand. curvata (pathogen +)
Description: as §1

Sacch. rouxii = Sacch. rouxii (pathogen (+))
Description: as §1

Rhodotorula spec. = Rhodotorula spec. (pathogen -)
Description: as §1

Metschnikowia pulch = Metschnikowia pulch (pathogen -)
Description: as §1

[1] = test system: Cryptococcus neoformans 2; settings: Cryptococcus neoformans 2 (pathogen +)
Description: as §1

Sacch. fragilis = Sacch. fragilis (pathogen (+))
Description: as §1

Cand. parapsilosis = settings: Lodderomyces parapsilosis; Cand. parapsilosis (pathogen +)
Description: as §1

[2] = test system: Cryptococcus neoformans 1; settings: Cryptococcus neoformans 1 (pathogen +)
Description: as §1

IC50 (Hansenula anomala): 0.00125 µg/mL (≈ 0.00213 µM)
IC50 (Cand. krusei): 0.125 µg/mL (≈ 0.213 µM)
IC50 (Cand. albicans): 0.00125 µg/mL (≈ 0.00213 µM)
IC50 (Sacch. cerevisiae 2): 1.25 µg/mL (≈ 2.13 µM)
IC50 (Sacch. uvarum): 1.25 µg/mL (≈ 2.13 µM)
IC50 (Cand. pseudotropicalis): 0.00125 µg/mL (≈ 0.00213 µM)
IC50 (Geotrichum capitum): 0.125 µg/mL (≈ 0.213 µM)
IC50 (Sacch. cerevisiae 1): 1.25 µg/mL (≈ 2.13 µM)
IC50 (Cand. curvata): 0.125 µg/mL (≈ 0.213 µM)
IC50 (Sacch. rouxii): 0.00125 µg/mL (≈ 0.00213 µM)
IC50 (Rhodotorula spec.): 1.25 µg/mL (≈ 2.13 µM)
IC50 (Metschnikowia pulch): 0.00125 µg/mL (≈ 0.00213 µM)
IC50 [1]: 0.125 µg/mL (≈ 0.213 µM)
IC50 (Sacch. fragilis): 0.0125 µg/mL (≈ 0.0213 µM)
IC50 (Cand. parapsilosis): 0.0125 µg/mL (≈ 0.0213 µM)
IC50 [2]: 0.0125 µg/mL (≈ 0.0213 µM)
Structure (SMILES): CSC(=NC#N)N1CCN(c2ccc(OC[C@H]3CO[C@](Cn4ccnc4)(c4ccc(Cl)cc4Cl)O3)cc2)CC1 (relative stereo) [Example 2, cis-1-Cyanimino-methylthio-methylene-4-[4[[2-(2,4-dichlorophenyl)-2-(1H-imidazol-1-ylmethyl)-1,3-dioxolan-4-yl]-methoxy]-phenyl]-piperazine]
